{"source": "paper PMC5245897", "about": "(PLoS ONE, 2017)", "origin": "cited, not measured here", "system": "GLP-1 receptor", "design": "method as in PMID 8396143", "conditions": "GLP-1 receptor antagonist", "data": [{"substance": "Exendin(9–39)", "values": [{"measurement": "GLP-1 receptor binding (in words)", "result": "GLP-1 receptor antagonist binding with high affinity"}]}]}
